SMILES strings stand for the structures.

For one test, the target named is T1, human ALK5 (Homo sapiens, UniProt P36897).
T1 construct: human ALK5 (recombinant TGF β1 N-term GST-tagged, 80-end); GST (N); purchased
T1 sequence (P36897 80-503 limits assumed): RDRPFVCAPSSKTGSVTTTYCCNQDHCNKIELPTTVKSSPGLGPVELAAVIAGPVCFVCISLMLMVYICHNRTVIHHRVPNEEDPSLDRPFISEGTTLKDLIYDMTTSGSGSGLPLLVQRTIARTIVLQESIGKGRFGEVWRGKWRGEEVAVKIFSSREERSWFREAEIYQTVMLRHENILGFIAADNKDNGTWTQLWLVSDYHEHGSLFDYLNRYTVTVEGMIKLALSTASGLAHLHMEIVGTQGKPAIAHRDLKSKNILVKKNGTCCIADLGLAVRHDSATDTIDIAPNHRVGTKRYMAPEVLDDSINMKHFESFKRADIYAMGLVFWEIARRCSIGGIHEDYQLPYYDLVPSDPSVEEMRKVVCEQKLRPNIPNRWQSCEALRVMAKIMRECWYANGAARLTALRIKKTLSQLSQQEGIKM
The experiment in a line: ADP-GLO Kinases assay, inhibitory activity on ALK5. The test is classed as biochemical. The settings on record: Table 10; purified recombinant human ALK5 2.6 nM, ADP-Glo, 25° C., 150 min incubation. The protocol:
The enzymatic activity of compounds of the present invention was monitored measuring the formation of ADP using the ADP-GLO Kinases assay. Following the incubation of the purified enzyme, a substrate and ATP, the produced ADP was converted into ATP, which in turn was converted into light by Ultra-Glo Luciferase. The luminescent signal positively correlated with ADP amount and kinase activity. Briefly, the kinase reaction was performed by incubating 2.6 nM of the purified, commercially available human ALK5 (recombinant TGF β1 N-term GST-tagged, 80-end), a final concentration of TGFβ1 peptide 94.5 μM (Promega, T36-58) and ultra-pure ATP (Promega V915B). The ATP concentration was set at the Km value (concentration of substrate which permits the enzyme to achieve half maximal velocity (Vmax)) of ALK5 (5 μM). All reactions/incubations were performed at 25° C. Compound and ALK5 kinase were mixed and incubated for 15 mins. Reactions were initiated by addition of ATP at a final concentration in the assay of 0.83 μM. After an incubation of 150 min, the reaction was stopped, and ADP production detected with ADP-Glo kit according to manufacturer's indications. The assay was performed in 384-well format and was validated using a selection of reference compounds that was tested in 11 point concentration-response curve.
Compounds of the examples C1, C2 and C3 were tested in the same in vitro assay described above.
One may read the IC50 as the concentration that gives 50% inhibition. For the compound `Cc1cccc(-c2cc(Nc3ccnc4[nH]cnc34)c3c(n2)NCCO3)n1` [Example 40, N-{3H-imidazo[4,5-b]pyridin-7-yl}-6-(6-methylpyridin-2-yl)-2H,3H,4H-pyrido[3,2-b][1,4]oxazin-8-amine], the IC50 was under 1 nM.
The same measure, in the same setting: the value for `Cc1cccc(-c2cc(Nc3ccnc4[nH]ncc34)c3c(n2)NCCO3)n1` [Example 41, 6-(6-methylpyridin-2-yl)-N-{1H-pyrazolo[3,4-b]pyridin-4-yl}-2H,3H,4H-pyrido[3,2-b][1,4]oxazin-8-amine] was under 1 nM; that for `Cc1cccc(-c2cc(Nc3ccncc3C(=O)NC3CCN(C)CC3)c3c(n2)NCCO3)n1` [Example 42, N-(1-methylpiperidin-4-yl)-4-{[6-(6-methylpyridin-2-yl)-2H,3H,4H-pyrido[3,2-b][1,4]oxazin-8-yl]amino}pyridine-3-carboxamide] was 1 to 5 nM; that for `CN(CCNC(=O)c1cnccc1Nc1cc(-c2cc(Cl)ccc2F)nc2c1OCCN2)C1COC1` [Example 43, 4-{[6-(5-chloro-2-fluorophenyl)-2H,3H,4H-pyrido[3,2-b][1,4]oxazin-8-yl]amino}-N-{2-[methyl(oxetan-3-yl)amino]ethyl}pyridine-3-carboxamide] was 1 to 5 nM.
The same measure, in the same setting: the value for `Cc1cccc(-c2cc(Nc3ccnc4[nH]ccc34)c3c(n2)NCCO3)n1` [Example 45, 6-(6-methylpyridin-2-yl)-N-{1H-pyrrolo[2,3-b]pyridin-4-yl}-2H,3H,4H-pyrido[3,2-b][1,4]oxazin-8-amine] was under 1 nM.
The same measure, in the same setting: the value for `CS(=O)(=O)N1CCN(CCNC(=O)c2cnccc2Nc2cc(-c3cc(Cl)ccc3F)nc3c2OCCN3)CC1` [Example 46, 4-{[6-(5-chloro-2-fluorophenyl)-2H,3H,4H-pyrido[3,2-b][1,4]oxazin-8-yl]amino}-N-[2-(4-methanesulfonylpiperazin-1-yl)ethyl]pyridine-3-carboxamide] was 1 to 5 nM; that for `CC(=O)N1CCN(CCNC(=O)c2cnccc2Nc2cc(-c3cc(Cl)ccc3F)nc3c2OCCN3)CC1` [Example 47, N-[2-(4-acetylpiperazin-1-yl)ethyl]-4-{[6-(5-chloro-2-fluorophenyl)-2H,3H,4H-pyrido[3,2-b][1,4]oxazin-8-yl]amino}pyridine-3-carboxamide] was 1 to 5 nM; that for `CN1CCC(CCNC(=O)c2cc3c(Nc4cc(-c5cc(Cl)ccc5F)nc5c4OCCN5)ccnc3[nH]2)CC1` [Example 48, 4-{[6-(5-chloro-2-fluorophenyl)-2H,3H,4H-pyrido[3,2-b][1,4]oxazin-8-yl]amino}-N-[2-(1-methylpiperidin-4-yl)ethyl]-1H-pyrrolo[2,3-b]pyridine-2-carboxamide] was under 1 nM.
For the compound `CN(C)CCNC(=O)c1cc2c(Nc3cc(-c4cc(Cl)ccc4F)nc4c3OCCN4)ccnc2[nH]1` [Example 49, 4-{[6-(5-chloro-2-fluorophenyl)-2H,3H,4H-pyrido[3,2-b][1,4]oxazin-8-yl]amino}-N-[2-(dimethylamino)ethyl]-1H-pyrrolo[2,3-b]pyridine-2-carboxamide], the IC50 is under 1 nM.

The same test, now with this note: Table 11, comparative examples; same in vitro assay.
For `Fc1ccc(Cl)cc1-c1cc(-c2ccncc2)c2c(n1)NCCO2` [Example C1, 4-[6-(5-chloro-2-fluorophenyl)-2H,3H,4H-pyrido[3,2-b][1,4]oxazin-8-yl]pyridine, reference compound], the IC50 stood at 6500 nM.
Same read-out and setting: the value for `Oc1ccc(-c2cc(-c3cc(Cl)ccc3F)nc3c2OCCN3)cc1` [Example C2, 4-[6-(5-chloro-2-fluorophenyl)-2H,3H,4H-pyrido[3,2-b][1,4]oxazin-8-yl]phenol, reference compound] was 1700 nM.

For the origin of these results see patent publication US20240190891A1, “PYRIDO OXAZINE AMINO DERIVATIVES AS ALK5 INHIBITORS” (CHIESI FARMACEUTICI S.P.A., priority 2020, published 2024).
